This is an account of results in patent US12673946B2, “Pyrimidin-4(3H)-one derivatives as TRPV4 antagonists” (RaQualia Pharma Inc., priority 2020, dated 2026).

By IC50 is commonly meant the point on the concentration scale where inhibition reaches its midpoint. A high value points to weaker potency in that assay.

The target of this test is T1, human TRPV4 (Homo sapiens, UniProt Q9HBA0).
T1 construct: host or cells: tetracycline-inducible Flp-In T-REx 293 cells
The test is described as follows: Hypotonicity-induced Ca2+ influx (Fluo-4, FDSS). Type of test: cell-based. An outline of the steps: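 Flp-In T-REx 293 cells with tetracycline-induced human TRPV4, loaded with Fluo-4 for 60 min at 25 °C. Compound added 5 min before hypotonic mannitol/CaCl2 solution. Ca2+ signal recorded for 4.5 min on FDSS.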

Where [1] appears, read: Flp-In T-REx 293 cells expressing human TRPV4, examples listed under heading 'Human IC50<50 nM'.
[2] abbreviates: Flp-In T-REx 293 cells stably expressing human TRPV4, compounds listed by potency bin (<10 nM Tables 96-1/96-2, <3 nM Table 97).

T1 sequence (Q9HBA0 whole entry): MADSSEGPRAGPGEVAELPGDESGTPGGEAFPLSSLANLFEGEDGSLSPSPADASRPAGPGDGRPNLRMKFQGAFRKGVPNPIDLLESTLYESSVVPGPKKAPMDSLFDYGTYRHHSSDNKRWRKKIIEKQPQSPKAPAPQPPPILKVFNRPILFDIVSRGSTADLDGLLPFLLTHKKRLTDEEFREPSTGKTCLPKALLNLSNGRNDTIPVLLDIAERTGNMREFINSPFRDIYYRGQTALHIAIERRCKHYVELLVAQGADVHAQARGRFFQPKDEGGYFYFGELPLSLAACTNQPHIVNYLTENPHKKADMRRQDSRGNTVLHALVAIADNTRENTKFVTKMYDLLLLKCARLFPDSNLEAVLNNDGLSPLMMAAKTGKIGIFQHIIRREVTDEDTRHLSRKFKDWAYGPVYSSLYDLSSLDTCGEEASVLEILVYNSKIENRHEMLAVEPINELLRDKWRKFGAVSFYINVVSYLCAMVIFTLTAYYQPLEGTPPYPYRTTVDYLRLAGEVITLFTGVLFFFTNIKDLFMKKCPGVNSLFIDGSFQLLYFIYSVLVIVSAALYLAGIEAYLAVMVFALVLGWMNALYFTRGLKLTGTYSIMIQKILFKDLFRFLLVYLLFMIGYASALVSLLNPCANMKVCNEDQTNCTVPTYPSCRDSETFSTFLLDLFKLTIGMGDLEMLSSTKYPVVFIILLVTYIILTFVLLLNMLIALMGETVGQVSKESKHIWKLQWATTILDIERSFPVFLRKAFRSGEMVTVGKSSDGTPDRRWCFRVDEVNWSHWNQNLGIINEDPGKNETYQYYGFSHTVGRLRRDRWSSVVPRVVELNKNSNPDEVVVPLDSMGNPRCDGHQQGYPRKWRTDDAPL

As for `O=C([C@H](O)c1cccc(C(F)(F)F)c1F)N1CCCc2nc(C3(c4cncc(-c5ccccc5)c4)CC3)[nH]c(=O)c2C1` [19-3], the IC50 was below 50 nM under setting [1] and below 10 nM under setting [2]. For `CC(C)c1cncc(C2(c3nc4c(c(=O)[nH]3)CN(C(=O)C(O)c3cccc(C(C)(C)C)c3)CCC4)CC2)c1` (stereo not shown) [19-4], in that order: below 50 nM and below 10 nM.

`CC(C)(C)c1cccc(C(O)C(=O)N2CCCc3nc(C4(c5cncc(-c6ccccc6)c5)CC4)[nH]c(=O)c3C2)c1` (stereo not shown) [19-5] showed an IC50 under setting [1] below 50 nM and an IC50 under setting [2] below 10 nM. In turn, `O=C([C@H](O)c1cccc(C(F)(F)F)c1)N1CCCc2nc(C3(c4cncc(Br)c4)CC3)[nH]c(=O)c2C1` [19-6] yielded a half-maximal inhibitory concentration (IC50) under setting [1] below 50 nM. The same measure, in the same setting: the figure for `CC(C)c1cncc(C2(c3nc4c(c(=O)[nH]3)CN(C(=O)C(O)c3cccc(C(F)(F)F)c3F)CCC4)CC2)c1` (stereo not shown) [19-7] is below 50 nM; for `O=C([C@H](O)c1cccc(C(F)(F)F)c1)N1CCCc2nc(C3(c4ccnc(Oc5ccccc5)c4)CC3)[nH]c(=O)c2C1` [19-8] it is below 50 nM. Still for that read-out and setting: the figure for `O=C([C@H](O)c1cccc(Cl)c1)N1CCCc2nc(C3(c4ccnc(Oc5ccccc5)c4)CC3)[nH]c(=O)c2C1` [19-9] is below 50 nM. The same measure, in the same setting: the figure for `O=C([C@H](O)c1cccc(Cl)c1)N1CCCc2nc(C3(c4cncc(-c5cnsc5)c4)CC3)[nH]c(=O)c2C1` [19-10] is below 50 nM.

With `O=C(C(O)c1cccc(Cl)c1F)N1CCCc2nc(C3(c4cncc(-c5ccccc5)c4)CC3)[nH]c(=O)c2C1` (stereo not shown) [19-11], the IC50 was below 50 nM under setting [1] and below 3 nM under setting [2].

Regarding `CC(C)c1cncc(C2(c3nc4c(c(=O)[nH]3)CN(C(=O)C(O)c3cccc(Cl)c3F)CCC4)CC2)c1` (stereo not shown) [19-12], the IC50 is below 50 nM under setting [1] and below 10 nM under setting [2]. With `O=C([C@H](O)c1cccc(C(F)(F)F)c1)N1CCCc2nc(C3(c4cncc(C(F)(F)F)c4)CC3)[nH]c(=O)c2C1` [19-13], the IC50 by setting is: under setting [1], below 50 nM; under setting [2], below 10 nM. For `O=C(Cc1cccc(-c2cccc(C(F)(F)F)c2)c1)N1CCCc2nc(C3(c4cncc(-c5ccccc5)c4)CC3)[nH]c(=O)c2C1` [19-14] the same measures were below 50 nM and below 10 nM. For `O=C(Cc1cccc(-c2cccc(Cl)c2)c1)N1CCCc2nc(C3(c4cncc(-c5ccccc5)c4)CC3)[nH]c(=O)c2C1` [19-15] the same measures were below 50 nM and below 10 nM. For `O=C(N1CCCc2nc(C3(c4ccccc4)CC3)[nH]c(=O)c2C1)C(F)(F)c1cccc(C(F)(F)F)c1` [20-1], in that order: below 50 nM and below 3 nM. `O=C(N1CCCc2nc(C3(c4cccc(Cl)c4)CC3)[nH]c(=O)c2C1)C(F)(F)c1cccc(Cl)c1` [20-2]: the IC50 runs as follows: under setting [1], below 50 nM; under setting [2], below 3 nM. For `O=C(N1CCCc2nc(C3(c4cccc(F)c4)CC3)[nH]c(=O)c2C1)C(F)(F)c1cccc(C(F)(F)F)c1` [20-3] the same measures were below 50 nM and below 3 nM. For `O=C(N1CCCc2nc(C3(c4cccc(Cl)c4)CC3)[nH]c(=O)c2C1)C(F)(F)c1cccc(C(F)(F)F)c1` [20-4] the same measures were below 50 nM and below 3 nM. For `O=C(N1CCCc2nc(C3(c4cccc(F)c4)CC3)[nH]c(=O)c2C1)C(F)(F)c1cccc(Cl)c1` [20-5] the same measures were below 50 nM and below 3 nM. In the case of `CC(C)c1cccc(C2(c3nc4c(c(=O)[nH]3)CN(C(=O)C(F)(F)c3cccc(C(F)(F)F)c3)CCC4)CC2)c1` [20-6], the IC50 is below 50 nM under setting [1] and below 10 nM under setting [2].

In the case of `O=C(N1CCCc2nc(C3(c4ccccc4)CC3)[nH]c(=O)c2C1)C(F)(F)c1cccc(Cl)c1` [20-7], the IC50 reads like this: under setting [1], below 50 nM; under setting [2], below 10 nM. For `CC(C)c1cccc(C2(c3nc4c(c(=O)[nH]3)CN(C(=O)C(F)(F)c3cccc(Cl)c3)CCC4)CC2)c1` [20-8], in that order: below 50 nM and below 10 nM. `O=C(N1CCc2nc(C3(c4ccccc4)CC3)[nH]c(=O)c2C1)C(F)(F)c1cccc(C(F)(F)F)c1` [20-9] registered an IC50 under setting [1] below 50 nM. On the same count and under the same terms, the figure for `O=C(N1CCc2nc(C3(c4cccc(Cl)c4)CC3)[nH]c(=O)c2C1)C(F)(F)c1cccc(C(F)(F)F)c1` [20-10] is below 50 nM; for `CC(C)c1cccc(C2(c3nc4c(c(=O)[nH]3)CN(C(=O)C(F)(F)c3cccc(C(F)(F)F)c3)CC4)CC2)c1` [20-13] it is below 50 nM; for `CC(C)c1cccc(C2(c3nc4c(c(=O)[nH]3)CN(C(=O)C(F)(F)c3cccc(Cl)c3)CC4)CC2)c1` [20-14] it is below 50 nM.

For the compound `O=C(N1CCCc2nc(C3(c4cccc(-c5csc6ccccc56)c4)CC3)[nH]c(=O)c2C1)C(F)(F)c1cccc(C(F)(F)F)c1` [20-15], the IC50 runs as follows: under setting [1], below 50 nM; under setting [2], below 10 nM.

Consider `O=C(N1CCCc2nc(C3(c4cccs4)CC3)[nH]c(=O)c2C1)C(F)(F)c1cccc(C(F)(F)F)c1` [21-1], for which the IC50 is, setting by setting: under setting [1], below 50 nM; under setting [2], below 3 nM. For `O=C(N1CCCc2nc(C3(c4cccs4)CC3)[nH]c(=O)c2C1)C(F)(F)c1cccc(Cl)c1` [21-2] the same measures were below 50 nM and below 10 nM. Regarding `CC(C)c1csc(C2(c3nc4c(c(=O)[nH]3)CN(C(=O)C(F)(F)c3cccc(Cl)c3)CCC4)CC2)c1` [21-3], the IC50 under setting [1] is below 50 nM and the IC50 under setting [2] is below 3 nM. For `CC(C)c1csc(C2(c3nc4c(c(=O)[nH]3)CN(C(=O)C(F)(F)c3cccc(Cl)c3)CC4)CC2)c1` [21-4] the same measures were below 50 nM and below 10 nM.

Regarding `CC(C)c1csc(C2(c3nc4c(c(=O)[nH]3)CN(C(=O)C(F)(F)c3cccc(C(F)(F)F)c3)CC4)CC2)c1` [21-5], the IC50 was below 50 nM under setting [1] and below 10 nM under setting [2]. For `CC(C)c1csc(C2(c3nc4c(c(=O)[nH]3)CN(C(=O)C(F)(F)c3cccc(Cl)c3F)CCC4)CC2)c1` [21-6] the same measures were below 50 nM and below 10 nM. For `CC(C)c1cncc(C2(c3nc4c(c(=O)[nH]3)CN(C(=O)C(F)(F)c3cccc(C(F)(F)F)c3)CCC4)CC2)c1` [22-1], in that order: below 50 nM and below 3 nM. Take `O=C(N1CCCc2nc(C3(c4cncc(-c5ccccc5)c4)CC3)[nH]c(=O)c2C1)C(F)(F)c1cccc(Cl)c1` [22-2]: the half-maximal inhibitory concentration (IC50) under setting [1] was below 50 nM and the IC50 under setting [2] is below 3 nM. For `CC(C)c1cncc(C2(c3nc4c(c(=O)[nH]3)CN(C(=O)C(F)(F)c3cccc(Cl)c3)CCC4)CC2)c1` [22-3], in that order: below 50 nM and below 3 nM. For `O=C(N1CCCc2nc(C3(c4cncc(-c5ccccc5)c4)CC3)[nH]c(=O)c2C1)C(F)(F)c1cccc(C(F)(F)F)c1` [22-4] the same measures were below 50 nM and below 3 nM. On to `O=C(N1CCc2nc(C3(c4cncc(-c5ccccc5)c4)CC3)[nH]c(=O)c2C1)C(F)(F)c1cccc(Cl)c1` [22-5], for which the IC50 reads like this: under setting [1], below 50 nM; under setting [2], below 10 nM. For `O=C(N1CCc2nc(C3(c4cncc(-c5ccccc5)c4)CC3)[nH]c(=O)c2C1)C(F)(F)c1cccc(C(F)(F)F)c1` [22-6] the same measures were below 50 nM and below 10 nM.

For the compound `O=C(N1CCCc2nc(C3(c4cncc(-c5ccccc5)c4)CC3)[nH]c(=O)c2C1)C(F)(F)c1cccc(Cl)c1F` [22-7], the IC50 is below 50 nM under setting [1] and below 3 nM under setting [2]. The compound `CC(C)c1cncc(C2(c3nc4c(c(=O)[nH]3)CN(C(=O)C(F)(F)c3cccc(Cl)c3F)CCC4)CC2)c1` [22-8] gave an IC50 under setting [1] below 50 nM and an IC50 under setting [2] below 10 nM.

The compound `CC(C)c1cncc(C2(c3nc4c(c(=O)[nH]3)CN(C(=O)C(F)(F)c3cccc(C(F)(F)F)c3)CC4)CC2)c1` [22-9] came in with a concentration for half-maximal inhibition (IC50) under setting [1] below 50 nM and an IC50 under setting [2] below 10 nM. Regarding `CC(C)c1cncc(C2(c3nc4c(c(=O)[nH]3)CN(C(=O)C(F)(F)c3cccc(Cl)c3)CC4)CC2)c1` [22-10], the IC50 under setting [1] was below 50 nM.

Regarding `O=C([C@H](O)c1cccc(Cl)c1)N1CCc2nc(C3(c4cc(C5CCC(F)(F)CC5)cs4)CC3)[nH]c(=O)c2C1` [23-1, (R)-6-(2-(3-chlorophenyl)-2-hydroxyacetyl)-2-(1-(4-(4,4-difluorocyclohexyl)thiophen-2-yl)cyclopropyl)-5,6,7,8-tetrahydropyrido[4,3-d]pyrimidin-4(3H)-one], the IC50 runs as follows: under setting [1], below 50 nM; under setting [2], below 10 nM.

Consider `O=C([C@H](O)c1cccc(Cl)c1)N1CCc2nc(C3(c4cc(C5CCCC5)cs4)CC3)[nH]c(=O)c2C1` [23-2], for which the IC50 was below 50 nM under setting [1] and below 10 nM under setting [2]. On to `O=C([C@H](O)c1cccc(Cl)c1)N1CCc2nc(C3(c4cccc(C5CCCC5)c4)CC3)[nH]c(=O)c2C1` [24-1], for which the IC50 runs as follows: under setting [1], below 50 nM; under setting [2], below 10 nM. `O=C([C@H](O)c1cccc(Cl)c1)N1CCc2nc(C3(c4cncc(C5CCCC5)c4)CC3)[nH]c(=O)c2C1` [25-1]: the IC50 under setting [1] is below 50 nM and the IC50 under setting [2] is below 3 nM. Regarding `O=C([C@H](O)c1cccc(Cl)c1)N1CCc2nc(C3(c4cncc(C5CCCCC5)c4)CC3)[nH]c(=O)c2C1` [25-2], the IC50 is below 50 nM under setting [1] and below 10 nM under setting [2]. As for `CC(C)c1cncc(C2(c3nc4c(c(=O)[nH]3)CN(C(=O)[C@H](O)c3cccc(Cl)c3)CC4)CC2)c1` [25-3], the IC50 is below 50 nM under setting [1] and below 10 nM under setting [2].

On to `O=C([C@H](O)c1cccc(Cl)c1)N1CCc2nc(C3(c4cncc(C5CCC(F)(F)CC5)c4)CC3)[nH]c(=O)c2C1` [25-4], for which the IC50 reads like this: under setting [1], below 50 nM; under setting [2], below 10 nM. For `O=C([C@H](O)c1cccc(C(F)(F)F)c1)N1CCc2nc(C3(c4cc(C5CCC(F)(F)CC5)cs4)CC3)[nH]c(=O)c2C1` [26-1] the same measures were below 50 nM and below 10 nM. On to `O=C([C@H](O)c1cccc(C(F)(F)F)c1)N1CCc2nc(C3(c4cc(C5CCOCC5)cs4)CC3)[nH]c(=O)c2C1` [26-2], for which the half-inhibitory concentration (IC50) under setting [1] was below 50 nM.
